Tested on: 947758-054-R-J2-PDC spheroid growth, percent test/control
Assay: Anticancer human tumor 947758-054-R-J2-PDC patient-derived colon adenocarcinoma cell line growth inhibition [CLK]
Conditions: spheroids with HUVEC and MSC; for IC50: curve of first compound; for viability, T/C: stronger effect = lower value
In short: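 Patient-derived tumor cells grown as complex spheroids with HUVEC endothelial cells and mesenchymal stem cells, treated with drug combinations. Concentrations descend in half-log steps from near clinical Cmax, or from 10 microM if Cmax unknown.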

[1] = second compound 0.0316 µM, first compound 0.0316 µM
[2] = second compound 0.0316 µM, first compound 0.1 µM
[3] = second compound 0.0316 µM, first compound 0.316 µM
[4] = second compound 0.0316 µM, first compound 1 µM
[5] = second compound 0.0316 µM, first compound 3.16 µM
[6] = second compound 0.0316 µM, first compound 10 µM
[7] = second compound 0.1 µM, first compound 0.0316 µM
[8] = second compound 0.1 µM, first compound 0.1 µM
[9] = second compound 0.1 µM, first compound 0.316 µM
[10] = second compound 0.1 µM, first compound 1 µM
[11] = second compound 0.1 µM, first compound 3.16 µM
[12] = second compound 0.1 µM, first compound 10 µM
[13] = second compound 0.316 µM, first compound 0.0316 µM
[14] = second compound 0.316 µM, first compound 0.1 µM
[15] = second compound 0.316 µM, first compound 0.316 µM
[16] = second compound 0.316 µM, first compound 1 µM
[17] = second compound 0.316 µM, first compound 3.16 µM
[18] = second compound 0.316 µM, first compound 10 µM
[19] = second compound 1 µM, first compound 0.0316 µM
[20] = second compound 1 µM, first compound 0.1 µM
[21] = second compound 1 µM, first compound 0.316 µM
[22] = second compound 1 µM, first compound 1 µM
[23] = second compound 1 µM, first compound 3.16 µM
[24] = second compound 1 µM, first compound 10 µM
[25] = second compound 3.16 µM, first compound 0.0316 µM
[26] = second compound 3.16 µM, first compound 0.1 µM
[27] = second compound 3.16 µM, first compound 0.316 µM
[28] = second compound 3.16 µM, first compound 1 µM
[29] = second compound 3.16 µM, first compound 3.16 µM
[30] = second compound 3.16 µM, first compound 10 µM
[31] = second compound 10 µM, first compound 0.0316 µM
[32] = second compound 10 µM, first compound 0.1 µM
[33] = second compound 10 µM, first compound 0.316 µM
[34] = second compound 10 µM, first compound 1 µM
[35] = second compound 10 µM, first compound 3.16 µM
[36] = second compound 10 µM, first compound 10 µM
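Further: spheroids exposed to compounds for one week before readout.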
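Wherever viability, T/C is given: 100% = DMSO vehicle control wells.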

`CC1(C)CCC(CN2CCN(c3ccc(C(=O)NS(=O)(=O)c4ccc(NCC5CCOCC5)c([N+](=O)[O-])c4)c(Oc4cnc5[nH]ccc5c4)c3)CC2)=C(c2ccc(Cl)cc2)C1` + CN1CCN(c2cc(C(=O)Nc3cc4cc(-c5cnn(C)c5)ccc4cn3)ccn2)CC1 was tested, and the IC50 (second compound 0.0316 µM) was 5540 nM, the IC50 (second compound 0.1 µM) was 6730 nM and the IC50 (second compound 0.316 µM) was < 31.6 nM. The IC50 (second compound 1 µM) was < 31.6 nM, the IC50 (second compound 3.16 µM) was < 31.6 nM and the IC50 (second compound 10 µM) was < 31.6 nM. It also gave a viability, T/C [1] of 106%, a viability, T/C [2] of 142% and a viability, T/C [3] of 113%. It also gave a viability, T/C [4] of 86.5%, a viability, T/C [5] of 101% and a viability, T/C [6] of 6.09%. It also gave a viability, T/C [7] of 174%, a viability, T/C [8] of 220% and a viability, T/C [9] of 181%. The viability, T/C [10] was 178%, the viability, T/C [11] was 139% and the viability, T/C [12] was 2.94%. The viability, T/C [13] was 4.83%, the viability, T/C [14] was 6.64% and the viability, T/C [15] was 4.64%. The viability, T/C [16] was 5.62%, the viability, T/C [17] was 4.76% and the viability, T/C [18] was 2.09%. It also gave a viability, T/C [19] of 0.18%, a viability, T/C [20] of 2.13% and a viability, T/C [21] of 1.78%. It also gave a viability, T/C [22] of 0.17%, a viability, T/C [23] of 1.22% and a viability, T/C [24] of 0.59%. For the same compound, the viability, T/C [25] was 0.97%, the viability, T/C [26] was 1.19% and the viability, T/C [27] was 0.31%. The viability, T/C [28] was 0.2%, the viability, T/C [29] was 0.16% and the viability, T/C [30] was 3.63%. It also gave a viability, T/C [31] of 0.86%, a viability, T/C [32] of 3.93% and a viability, T/C [33] of 1.09%. The viability, T/C [34] was 0.43%, the viability, T/C [35] was 0.52% and the viability, T/C [36] was 0.32%.
With `CC1COCCN1c1cc(C2(S(C)(=N)=O)CC2)nc(-c2ccnc3[nH]ccc23)n1` (stereo unspecified) + CN1CCN(c2cc(C(=O)Nc3cc4cc(-c5cnn(C)c5)ccc4cn3)ccn2)CC1 the IC50 (second compound 0.0316 µM) was 8190 nM, the IC50 (second compound 0.1 µM) was 4290 nM and the IC50 (second compound 0.316 µM) was < 31.6 nM. For the same compound, the IC50 (second compound 1 µM) was < 31.6 nM, the IC50 (second compound 3.16 µM) was < 31.6 nM and the IC50 (second compound 10 µM) was < 31.6 nM. The viability, T/C [1] was 129%, the viability, T/C [2] was 130% and the viability, T/C [3] was 147%. The viability, T/C [4] was 208%, the viability, T/C [5] was 174% and the viability, T/C [6] was 27.1%. It also gave a viability, T/C [7] of 156%, a viability, T/C [8] of 161% and a viability, T/C [9] of 134%. It also gave a viability, T/C [10] of 111%, a viability, T/C [11] of 59.6% and a viability, T/C [12] of 20.6%. The viability, T/C [13] was 4.56%, the viability, T/C [14] was 7.68% and the viability, T/C [15] was 5.32%. It also gave a viability, T/C [16] of 4.07%, a viability, T/C [17] of 7.49% and a viability, T/C [18] of 2.19%. For the same compound, the viability, T/C [19] was 0.17%, the viability, T/C [20] was 0.18% and the viability, T/C [21] was 0.17%. For the same compound, the viability, T/C [22] was 2.01%, the viability, T/C [23] was 2.61% and the viability, T/C [24] was 0.13%. The viability, T/C [25] was 0.74%, the viability, T/C [26] was 0.2% and the viability, T/C [27] was 0.39%. It also gave a viability, T/C [28] of 1.46%, a viability, T/C [29] of 1.04% and a viability, T/C [30] of 0.96%. The viability, T/C [31] was 1.2%, the viability, T/C [32] was 0.28% and the viability, T/C [33] was 1.41%. It also gave a viability, T/C [34] of 1.13%, a viability, T/C [35] of 1.09% and a viability, T/C [36] of 0.51%.
`NC(=O)C(=Cn1cnc(-c2cc(C(F)(F)F)cc(C(F)(F)F)c2)n1)c1cncnc1` + CN1CCN(c2cc(C(=O)Nc3cc4cc(-c5cnn(C)c5)ccc4cn3)ccn2)CC1 was tested, and the IC50 (second compound 0.0316 µM) was 78.5 nM, the IC50 (second compound 0.1 µM) was < 9.49 nM and the IC50 (second compound 0.316 µM) was < 9.49 nM. The IC50 (second compound 1 µM) was < 9.49 nM, the IC50 (second compound 3.16 µM) was < 9.49 nM and the IC50 (second compound 10 µM) was < 9.49 nM. The viability, T/C (second compound 0.0316 µM, first compound 0.00949 µM) was 195%, the viability, T/C (second compound 0.0316 µM, first compound 0.03 µM) was 224% and the viability, T/C (second compound 0.0316 µM, first compound 0.0949 µM) was 44.3%. The viability, T/C (second compound 0.0316 µM, first compound 0.3 µM) was 19%, the viability, T/C (second compound 0.0316 µM, first compound 0.949 µM) was 10.3% and the viability, T/C (second compound 0.0316 µM, first compound 3 µM) was 0.87%. The viability, T/C (second compound 0.1 µM, first compound 0.00949 µM) was 42.9%, the viability, T/C (second compound 0.1 µM, first compound 0.03 µM) was 24.9% and the viability, T/C (second compound 0.1 µM, first compound 0.0949 µM) was 16.4%. For the same compound, the viability, T/C (second compound 0.1 µM, first compound 0.3 µM) was 6.99%, the viability, T/C (second compound 0.1 µM, first compound 0.949 µM) was 0.38% and the viability, T/C (second compound 0.1 µM, first compound 3 µM) was 0.42%. It also gave a viability, T/C (second compound 0.316 µM, first compound 0.00949 µM) of 0.44%, a viability, T/C (second compound 0.316 µM, first compound 0.03 µM) of 0.27% and a viability, T/C (second compound 0.316 µM, first compound 0.0949 µM) of 0.21%. For the same compound, the viability, T/C (second compound 0.316 µM, first compound 0.3 µM) was 1.5%, the viability, T/C (second compound 0.316 µM, first compound 0.949 µM) was 0.15% and the viability, T/C (second compound 0.316 µM, first compound 3 µM) was 0.3%. For the same compound, the viability, T/C (second compound 1 µM, first compound 0.00949 µM) was 0.13%, the viability, T/C (second compound 1 µM, first compound 0.03 µM) was 0.18% and the viability, T/C (second compound 1 µM, first compound 0.0949 µM) was 0.39%. The viability, T/C (second compound 1 µM, first compound 0.3 µM) was 0.33%, the viability, T/C (second compound 1 µM, first compound 0.949 µM) was 1.84% and the viability, T/C (second compound 1 µM, first compound 3 µM) was 0.25%. For the same compound, the viability, T/C (second compound 3.16 µM, first compound 0.00949 µM) was 0.31%, the viability, T/C (second compound 3.16 µM, first compound 0.03 µM) was 0.76% and the viability, T/C (second compound 3.16 µM, first compound 0.0949 µM) was 0.81%. It also gave a viability, T/C (second compound 3.16 µM, first compound 0.3 µM) of 0.66%, a viability, T/C (second compound 3.16 µM, first compound 0.949 µM) of 1.31% and a viability, T/C (second compound 3.16 µM, first compound 3 µM) of 1.56%. The viability, T/C (second compound 10 µM, first compound 0.00949 µM) was 0.47%, the viability, T/C (second compound 10 µM, first compound 0.03 µM) was 0.74% and the viability, T/C (second compound 10 µM, first compound 0.0949 µM) was 1.04%. The viability, T/C (second compound 10 µM, first compound 0.3 µM) was 0.9%, the viability, T/C (second compound 10 µM, first compound 0.949 µM) was 1.38% and the viability, T/C (second compound 10 µM, first compound 3 µM) was 0.53%.

Source: PubChem BioAssay AID2060605 (Molecular Pharmacology Branch, DTP, NCI, 2025)
